Data: patent publication KR20110010755A, “결정질 2-((2s,3r,4e,6e,10e,12s)-13-(4-플루오로페녹시)-2,3,12-(트리히드록시트리데카-4,6,10-트리엔-8-이닐)옥시)아세트산의 무수물 및 수화물 형태” (바이엘 쉐링 파마 악티엔게젤샤프트, priority 2008, dated 2009)

Legend:
[1] = Relative chemical stability of polymorph I over 4 weeks under storage (HPLC purity); format: physicochemical; conditions: for HPLC purity: week 0; for HPLC purity at 336 h / HPLC purity at 672 h: solid storage; for HPLC purity at 336 h: week 2; for HPLC purity at 672 h: week 4
[2] = Hygroscopicity: water sorption/desorption in an automated water sorption analyser, 25 ℃; format: physicochemical
[3] = tested on: human neutrophils [인간 호중구]; conditions: through human endothelial cells and epithelial cells, e.g. human intestinal epithelial cell line T84; literature; cited from earlier work

Structure (SMILES): O=C(O)COC[C@H](O)[C@H](O)/C=C/C=C/C#C/C=C/[C@H](O)COc1ccc(F)cc1 [다형체 I, 2-((2S,3R,4E,6E,10E,12S)-13-(4-플루오로페녹시)-2,3,12-트리히드록시트리데카-4,6,10-트리엔-8-이닐옥시)아세트산]
- HPLC purity ([1]; 25 ℃, dry): 97.36%
- HPLC purity ([1]; 25 ℃/60%RH): 97.36%
- HPLC purity ([1]; 40 ℃, dry): 97.36%
- HPLC purity ([1]; 40 ℃/75%RH): 97.36%
- HPLC purity at 336 h ([1]; 25 ℃, dry): 97.5%
- HPLC purity at 672 h ([1]; 25 ℃, dry): 97.5%
- HPLC purity at 336 h ([1]; 25 ℃/60%RH): 97.5%
- HPLC purity at 672 h ([1]; 25 ℃/60%RH): 97.7%
- HPLC purity at 336 h ([1]; 40 ℃, dry): 96.9%
- HPLC purity at 672 h ([1]; 40 ℃, dry): 96.4%
- HPLC purity at 336 h ([1]; 40 ℃/75%RH): 95.9%
- HPLC purity at 672 h ([1]; 40 ℃/75%RH): 92.5%
- moisture adsorbed ([2]; 80% relative humidity, corresponds to the dihydrate of the substance): ~8%
- hygroscopicity ([2]; in words): 흡습성
- reversibility of hydration ([2]; in words): 가역적
- relative humidity at which polymorph I transforms into the hydrate ([2]; relative humidity): > 60%

Structure (SMILES): O=C(O)COC[C@H](O)[C@H](O)/C=C/C=C/C#C/C=C/[C@H](O)COc1ccc(F)cc1 [수화물, 2-((2S,3R,4E,6E,10E,12S)-13-(4-플루오로페녹시)-2,3,12-트리히드록시트리데카-4,6,10-트리엔-8-이닐옥시)아세트산]
- relative humidity at which transformation into polymorph I is observed ([2]; relative humidity, reversal of hydration): < 40%

Structure (SMILES): CCCCC[C@H](O)/C=C/C=C\C=C\C=C\[C@@H](O)[C@@H](O)CCCC(=O)O [리폭신 A4]
- inhibition of transmigration of human neutrophils [3]: 억제한다
